Experimental data reported in PubChem BioAssay (NCI).
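Briefly, cells in 96-well plates were exposed to five compound concentrations for 48 h, and endpoints were estimated by linear interpolation. Abbreviation: GI50, concentration required for 50% inhibition of growth. Definition used: TGI = concentration required for complete inhibition of growth.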

Key:
Test in all cases: NCI anticancer screen, dose series, 48 h
[1] = tested on: OVCAR-8 ovarian
[2] = tested on: OVCAR-3 ovarian
[3] = tested on: MCF7 breast
[4] = tested on: U251 CNS
[5] = tested on: SK-MEL-5 melanoma
[6] = tested on: SN12C renal
[7] = tested on: A549 NSCLC
[8] = tested on: MALME-3M melanoma
[9] = tested on: CCRF-CEM leukemia
[10] = tested on: M14 melanoma
[11] = tested on: HCT-116 colon
[12] = tested on: RPMI-8226 leukemia
[13] = tested on: SK-MEL-28 melanoma
[14] = tested on: UACC-257 melanoma
[15] = tested on: NCI-H460 lung
[16] = tested on: HCT-15 colon
[17] = tested on: HOP-62 NSCLC
[18] = tested on: DU-145 prostate
[19] = tested on: SF-295 CNS
[20] = tested on: UO-31 renal
[21] = tested on: SNB-75 CNS
[22] = tested on: SNB-19 CNS
[23] = tested on: OVCAR-5 ovarian
[24] = tested on: HL-60(TB) leukemia
[25] = tested on: SF-268 CNS
[26] = tested on: NCI-H23 lung
[27] = tested on: CAKI-1 renal
[28] = tested on: TK-10 renal
[29] = tested on: OVCAR-4 ovarian
[30] = tested on: COLO 205 colon
[31] = tested on: MDA-MB-231 breast
[32] = tested on: K-562 leukemia
[33] = tested on: SK-MEL-2 melanoma
[34] = tested on: ACHN renal
[35] = tested on: LOX IMVI melanoma
[36] = tested on: 786-0 renal
[37] = tested on: MDA-MB-435
[38] = tested on: HT29 colon
[39] = tested on: BT-549 breast
[40] = tested on: SR leukemia
[41] = tested on: NCI/ADR-RES ovarian
[42] = tested on: HCC-2998 colon
[43] = tested on: PC-3 prostate
[44] = tested on: RXF 393 renal
[45] = tested on: MOLT-4 leukemia
[46] = tested on: KM12 colon
[47] = tested on: EKVX NSCLC
[48] = tested on: HS 578T breast
[49] = tested on: NCI-H226 lung
[50] = tested on: SK-OV-3 ovarian
[51] = tested on: HOP-92 NSCLC
[52] = tested on: IGROV1 ovarian
[53] = tested on: SF-539 CNS
[54] = tested on: SW-620 colon
[55] = tested on: NCI-H522 lung
[56] = tested on: A498 renal
[57] = tested on: UACC-62 melanoma

O=c1[nH]nc(NCCc2ccccc2)c2nnn(Cc3ccccc3)c12
TGI [1]: > 100 µM | TGI [2]: > 100 µM | TGI [3]: > 100 µM | TGI [4]: > 100 µM | TGI [5]: > 100 µM | TGI [6]: > 100 µM | TGI [7]: > 100 µM | TGI [8]: > 100 µM | TGI [9]: > 100 µM | TGI [10]: > 100 µM | TGI [11]: > 100 µM | TGI [12]: > 100 µM | TGI [13]: > 100 µM | TGI [14]: > 100 µM | TGI [15]: > 100 µM | TGI [16]: > 100 µM | TGI [17]: > 100 µM | TGI [18]: > 100 µM | TGI [19]: > 100 µM | TGI [20]: > 100 µM | TGI [21]: > 100 µM | TGI [22]: > 100 µM | TGI [23]: > 100 µM | TGI [24]: > 100 µM | TGI [25]: > 100 µM | TGI [26]: > 100 µM | TGI [27]: > 100 µM | TGI [28]: > 100 µM | TGI [29]: > 100 µM | TGI [30]: > 100 µM | TGI [31]: > 100 µM | TGI [32]: > 100 µM | TGI [33]: > 100 µM | TGI [34]: > 100 µM | TGI [35]: > 100 µM | TGI [36]: > 100 µM | TGI [37]: > 100 µM | TGI [38]: > 100 µM | TGI [39]: > 100 µM | TGI [40]: > 100 µM | TGI [41]: > 100 µM | TGI [42]: > 100 µM | TGI [43]: > 100 µM | TGI [44]: > 100 µM | TGI [45]: > 100 µM | TGI [46]: > 100 µM | TGI [47]: > 100 µM

CCCCCCCCCOc1c(OC)cc(C2CC(=O)Nc3c2c(C)nn3-c2nc3ccccc3[nH]2)cc1OC (stereo unspecified)
GI50 [48]: 0.622 µM | TGI [48]: 1.97 µM | GI50 [1]: 1.71 µM | TGI [1]: 7.28 µM | GI50 [2]: 1.18 µM | TGI [2]: 2.89 µM | GI50 [3]: 1.59 µM | TGI [3]: > 50 µM | GI50 [5]: 0.871 µM | TGI [5]: 1.56 µM | GI50 [7]: 1.08 µM | TGI [7]: 2.35 µM | GI50 [8]: 0.914 µM | TGI [8]: 1.92 µM | GI50 [9]: 1.72 µM | TGI [9]: > 50 µM | GI50 [49]: 0.939 µM | TGI [49]: 1.84 µM | GI50 [11]: 1.78 µM | TGI [11]: > 50 µM | GI50 [12]: 1.46 µM | TGI [12]: 4.29 µM | GI50 [13]: 0.897 µM | TGI [13]: 1.81 µM | GI50 [14]: 1.47 µM | TGI [14]: > 50 µM | GI50 [15]: 0.928 µM | TGI [15]: 1.8 µM | GI50 [16]: 1.05 µM | TGI [16]: 2.46 µM | GI50 [17]: 0.974 µM | TGI [17]: 2.11 µM | GI50 [18]: 1.79 µM | TGI [18]: > 50 µM | GI50 [19]: 0.816 µM | TGI [19]: 1.74 µM | GI50 [50]: 1.06 µM | TGI [50]: 2.09 µM | GI50 [20]: 0.679 µM | TGI [20]: 1.32 µM | GI50 [21]: 0.67 µM | TGI [21]: 1.55 µM | GI50 [23]: 0.881 µM | TGI [23]: 1.86 µM | GI50 [24]: 1.58 µM | TGI [24]: 4.45 µM | GI50 [25]: 1.04 µM | TGI [25]: 2.57 µM | GI50 [26]: 0.904 µM | TGI [26]: 1.83 µM | GI50 [27]: 0.917 µM | TGI [27]: 1.81 µM | GI50 [51]: 0.955 µM | TGI [51]: 2.46 µM | GI50 [28]: 1.27 µM | TGI [28]: 3.83 µM | GI50 [52]: 0.89 µM | TGI [52]: 1.77 µM | GI50 [30]: 1.73 µM | TGI [30]: > 50 µM | GI50 [53]: 0.851 µM | TGI [53]: 1.65 µM | GI50 [31]: 0.975 µM | TGI [31]: 1.87 µM | GI50 [32]: 1.81 µM | TGI [32]: > 50 µM | GI50 [33]: 1.41 µM | TGI [33]: 4.31 µM | GI50 [34]: 1.13 µM | TGI [34]: 2.79 µM | GI50 [35]: 0.913 µM | TGI [35]: 1.67 µM | GI50 [37]: 0.982 µM | TGI [37]: 1.99 µM | GI50 [38]: 1.64 µM | TGI [38]: > 50 µM | GI50 [40]: 1.57 µM | TGI [40]: 6.51 µM | GI50 [54]: 1 µM | TGI [54]: 2.17 µM | GI50 [41]: 1.31 µM | TGI [41]: 3.74 µM | GI50 [42]: 1.62 µM | TGI [42]: > 50 µM | GI50 [55]: 1.01 µM | TGI [55]: 2.4 µM | GI50 [45]: 1.34 µM | TGI [45]: 3.25 µM | GI50 [46]: 1.17 µM | TGI [46]: 3.08 µM | GI50 [47]: 0.981 µM | TGI [47]: 2.32 µM

N=c1c2ccccc2nc2oc3ccccc3n12
TGI [48]: 60.3 µM | TGI [1]: > 100 µM | TGI [3]: > 100 µM | TGI [5]: 69.5 µM | TGI [56]: > 100 µM | TGI [6]: > 100 µM | TGI [7]: > 100 µM | TGI [8]: > 100 µM | TGI [9]: > 100 µM | TGI [11]: > 100 µM | TGI [12]: > 100 µM | TGI [57]: > 100 µM | TGI [14]: > 100 µM | TGI [16]: > 100 µM | TGI [17]: 88.2 µM | TGI [19]: > 100 µM | TGI [50]: > 100 µM | TGI [20]: > 100 µM | TGI [22]: > 100 µM | TGI [23]: > 100 µM | TGI [24]: > 100 µM | TGI [25]: 28 µM | TGI [26]: > 100 µM | TGI [27]: > 100 µM | TGI [51]: 80.6 µM | TGI [28]: 87.3 µM | TGI [52]: > 100 µM | TGI [29]: 61.4 µM | TGI [30]: > 100 µM | TGI [53]: > 100 µM | TGI [32]: > 100 µM | TGI [33]: > 100 µM | TGI [34]: > 100 µM | TGI [35]: > 100 µM | TGI [37]: > 100 µM | TGI [38]: > 100 µM | TGI [39]: > 100 µM | TGI [54]: > 100 µM | TGI [41]: > 100 µM | TGI [42]: > 100 µM | TGI [43]: > 100 µM | TGI [47]: 29.9 µM
